Patent US20200297790A1, “HERBAL COMPOSITION FOR PREVENTING OR TREATING BENIGN PROSTATIC HYPERPLASIA DISEASE” (priority 2017, published 2020)

Tests used:
[1] = Body weight change in testosterone-induced benign prostatic hyperplasia rat model; assay type: in vivo; details: weighed weekly, five times; extracts 300 mg/kg or finasteride 10 mg/kg orally, 30 days; FIG. 4
Description: (§1) After being acclimated for one week or longer, male SD rats 9 weeks old (weighing 350 g or less) were divided on the basis of weight into (1) a normal group, (2) a benign prostatic hyperplasia-induced and distilled water-administered group (negative control), (3) benign prostatic hyperplasia-induced and composite herbal extract-administered group ([…]), (4) benign prostatic hyperplasia-induced and single Semen Cuscutae herbal extract-administered group (Comparative Example 1-1), (5) benign prostatic hyperplasia-induced and single Semen nelumbinis herbal extract-administered group (Comparative Example 1-2), (6) benign prostatic hyperplasia-induced and single Taraxaci Herba herbal extract-administered group (Comparative Example 1-3), and (7) benign prostatic hyperplasia-induced and finasteride-administered group (positive control). In order to induce benign prostatic hyperplasia, testosterone (dissolved in cotton seed oil) was subcutaneously injected at a dose of 3 mg/kg once/three days for a total of 10 times. For the control, the same amount of cotton seed oil was subcutaneously injected. The composite herbal extract of Preparation Example 1-6 and the single herbal extracts of Comparative Example 1 were each orally administered at a dose of 300 mg/kg once a day for 30 days. […]

[2] = tested on: testosterone-induced benign prostatic hyperplasia rat model; assay: Inhibition of prostate enlargement (prostate weight) in testosterone-induced benign prostatic hyperplasia rat model; assay type: in vivo; details: SD rats, testosterone 3 mg/kg s.c., extracts 300 mg/kg or finasteride 10 mg/kg orally once a day for 30 days
Description: as §1

[3] = tested on: testosterone-induced benign prostatic hyperplasia rat model; assay: Size of acinus in excised prostate tissue (H&E staining) of testosterone-induced benign prostatic hyperplasia rat model; assay type: in vivo; details: extracts 300 mg/kg or finasteride 10 mg/kg orally, 30 days
Method: For the control, the same amount of cotton seed oil was subcutaneously injected. […] For the negative control, oral administration of distilled water alone was carried out. From the starting day of the test, the rats were weighed five times in total at regular intervals of one week. On the next day after the final administration and treatment, the rats were sacrificed with carbon dioxide gas. The prostate glands were excised and weighed. % Inhibition of prostate enlargement was expressed according to the following mathematical formula on the basis of the weight measurements. […] Slides of the stained tissues were observed and photographed with an optical microscope. From the images, sizes of the acini in the prostate glands were measured. The reduction in the size of acinus of each experimental group is expressed as a percentage relative to the size of acinus of the normal group.

[4] = tested on: LNCaP cells; assay: Inhibition of testosterone-induced proliferation of prostate epithelial cell line (MTT assay); assay type: cell-based, human; details: 2 μM testosterone alone, 72 hours
Method: LNCaP cells, which are the prostate epithelial cells derived from human prostate cancer, were seeded at a density of 1×10^5 cells/well in 24-well plates containing an RPMI medium (Gibco U.S.A) and stabilized overnight. Then, the cells were cultured for 24 hours in a serum-free medium. After removal of the medium, the cells were incubated for 72 hours with 2 μM of testosterone (Tes) alone or in combination with 50, 100, or 200 μg/ml of the composite herbal extract of Preparation Example 1-6 or 4. Thereafter, growth of the cells was evaluated by MTT assay. Cell proliferation data were expressed as percentages of the cell counts relative to that of the Tes-treated group.
LNCaP cells, which are the prostate epithelial cells derived from human prostate cancer, were seeded at a density of 1×10^5 cells/well in 24-well plates containing an RPMI medium (Gibco, U.S.A) and stabilized overnight. […] Thereafter, growth of the cells was evaluated by MTT assay. Cell proliferation data were expressed as percentages of the cell counts relative to that of the Tes-treated group.
LNCaP cells, which are the prostate epithelial cells derived from human prostate cancer, were seeded at a density of 1×10^5 cells/well in 24-well plates containing an RPMI medium (Gibco, U.S.A) and stabilized overnight. […] Thereafter, growth of the cells was evaluated by MTT assay. […]

SMILES | body weight difference among testosterone-treated groups [1] | Prostate weight/body weight [2] [g/kg] | % Inhibition of prostate enlargement ([2]; vs negative control) [%] | Reductive effect on size of acinus (%) [3] [%] | Size of acinus (%) ([3]; percentage relative to normal group) | growth of prostate epithelial cells when treated with testosterone [4]
CC(C)(C)NC(=O)[C@H]1CC[C@H]2[C@@H]3CC[C@H]4NC(=O)C=C[C@]4(C)[C@H]3CC[C@]12C [Finasteride] | significant differences in body weight were not observed | 1.31 ± 0.10 | 43 | 42 | 279 ± 10 | –
C[C@]12CC[C@H]3[C@@H](CCC4=CC(=O)CC[C@@]43C)[C@@H]1CC[C@@H]2O [testosterone] | – | – | – | – | – | about 62.5%
